Assay results taken from publication PMC12019328, “Discovery of an ApoE4-targeted small-molecule SirT1 enhancer for the treatment of Alzheimer’s disease” (Scientific Reports, 2025).
Entries after “also recorded” stand apart in the source; their conditions may differ.

Experiments:
[1] = system: SirT1 mRNA in N2a-E4 cells; experiment: SirT1 mRNA in N2a-E4 cells (qRT-PCR); format: cell-based, murine; conditions: 5 µM, 24 h, normalized to GAPDH and DMSO
Procedure: Relative SirT1 mRNA and protein enhancement by racemate DDL-214 and enantiomers DDL-218 and − 219 was determined in murine neuroblastoma cells stably transfected with ApoE4 (N2a-E4)[25]. All test compounds in DMSO were prepared at 2x the final concentration in DMEM supplemented with 10% fetal bovine serum (FBS) and 1% pen-strep (PS) and 50 µL of each loaded into individual wells of a 96-well plate. Previously cultured N2a-E4 were then trypsinized, harvested, centrifuged, and counted; then 50 µL of cell suspension adjusted to 400 cells/µL was added to each well. The plate was then incubated at 37 °C, 5% CO2 for 48 h. Cells were treated with DDL-214, DDL-218, or DDL-219 at 5 µM final then incubated for 24 h. […]
(§1) Total RNA was isolated from cells or brain tissue (Qiagen RNEasy kit). Total RNA (0.5–1.0 µg) mRNA was then converted to cDNA (SuperScript™ III First-Strand Synthesis SuperMix kit; Thermo Fisher), and gene mRNA levels were measured using a gene-specific qRT-PCR Taqman assays (Thermo Fisher). Gene mRNA levels were normalized to GAPDH mRNA levels measured either in the same cDNA sample or in the same qPCR reaction using multiplexing of gene-of-interest/VIC and GAPDH/FAM, normalized by the delta-delta-Ct method.

[2] = system: SirT1 mRNA in Kelly cells; experiment: SirT1 mRNA in Kelly neuroblastoma cells; format: cell-based, human; conditions: 5 µM, 24 h, vs DMSO control
Procedure: Human neuroblastoma ‘Kelly’ cells (genotype APOE3/APOE4) were plated in 96-well plates at 50K cells per well and were grown overnight in RPMI 1640 supplemented with 2 mM Glutamine, 10% FBS and 1% Pen-Strep. Cells were treated with 5 µM DDL-214, -218, or -219; or DMSO vehicle (n = 8 per compound). Twenty-four hours later, medium was removed, cells washed and lysed as described above for N2a-E4 cells.
as §1

[3] = system: hippocampal proteins; experiment: Global proteomics on hippocampal brain tissue; format: in vivo, mice
Procedure: Hippocampal brain tissue from both DDL-218- and vehicle-treated mice underwent global proteomics analysis, as described in Supplementary Methods.
Liquid chromatography tandem mass spectrometry (LC-MS/MS) was used for proteomic analysis.
Proteins from hippocampal tissue from mice treated with either DDL-218 or vehicle were diluted in T-PER buffer and concentrations adjusted after BCA protein quantitation assay (Thermo Fisher Scientific). The protein disulfide bonds were reduced and alkylated by treatment with 10 mM tris (2-carboxyethyl) phosphine (TCEP) and 40 mM chloroacetamide (CAA) for 10 min at 95°C. SP3 beads were added to each sample concentrated at 25 μL of beads for 100 μg of protein. Samples were washed 3 times with 2x the sample volume of 80% ethanol in the DynaMag™-2 Magnet and protein solutions diluted 5-fold with 50 mM TEAB.
Trypsin was added in a 1:100 (mass trypsin:mass total protein) ratio to target proteins, and the samples were incubated overnight on a rocker at 37°C.
Samples were centrifuged at 16,000 x g for 5 minutes at room temperature. A colorimetric peptide assay (Thermo Fischer Scientific) was run on a sample of each supernatant. The results were used to aliquot […] of protein from each sample, which were then lyophilized in the SpeedVac. Samples were reconstituted in 100mM TEAB, individually labelled using TMT Isobaric Label Reagent Set (Thermo Fischer Scientific), and incubated at room temperature for one hour. Each sample was then incubated at room temperature for 15 minutes with 5uL of 5% hydroxylamine and lyophilized in the SpeedVac. Subsequently, samples were reconstituted in 2% acetonitrile + 0.1% TFA, and a 5uL aliquot of each sample was pooled together. The pooled sample was desalted with C18 Stagetips made from Empore C18 solid phase extraction disks and lyophilized in the SpeedVac. It was then reconstituted in 2% acetonitrile + 0.1% Formic Acid (FA) and transferred to an autosampler vial. LC/MS2 was performed using a nanoLC and orbitrap mass analyzer using a C18 column and DDA/MS2 mass spectrometer method.
Samples were injected (5 μL) onto a reverse phase nanobore HPLC column (AcuTech Scientific, C18, 1.8 μm particle size, 360 μm x 20 cm, 150 μm ID), equilibrated in solvent E and eluted (500 nL/min) with an increasing concentration of solvent F (acetonitrile/water/FA, 98/2/0.1, v/v/v: min/% F; 0/0, 5/3, 18/7, […]
(Framingham, MA)). The effluent from the column was directed to a nanospray ionization source connected to a hybrid quadrupole-Orbitrap mass spectrometer (Q Exactive Plus, Thermo Fisher Scientific) operating in the positive ion data-dependent mode alternating between a full scan (m/z 350-1700, automated gain control (AGC) target 3 x 106, 50 ms maximum injection time, FWHM resolution 70,000 at m/z 200) and up to 10 MS/MS scans (quadrupole isolation of charge states ≥ 2, isolation width 0.7 Th) with optimized fragmentation conditions (normalized collision energy of 32, dynamic exclusion of 30 s, AGC target 1 x 105, 100 ms maximum injection time, FWHM resolution 35,000 at m/z 200). The raw data from both analyses was processed using Proteome Discoverer™ (version 2.4). Tryptic peptides containing amino acid sequences unique to individual proteins were used for identification/quantification of each protein.
Raw data was submitted to a database search using Proteome Discoverer 3.1 [ThermoFischer Scientific]. Using the results for TMT labeling efficiency, sample volumes were adjusted to achieve an equal ratio of protein across TMT labeled samples. Remaining samples were pooled in equal ratio, and the pooled sample was desalted and lyophilized in the SpeedVac overnight.
The pooled sample was fractionated using Pierce High pH Reversed-Phase Peptide Fractionation Kit (Thermo Fischer Scientific) according to the manufacturer’s protocol. The fractions were dried in the SpeedVac and reconstituted in 0.1% formic acid. Samples were transferred to autosampler vials and LC/MS2 was performed as previously described. […]

CC(N)C(=O)OC(C)(C)Cc1ccncc1 (stereo not drawn) [DDL-218]
SirT1 mRNA [1]: greatest increase; also recorded: significantly increased SirT1 mRNA | SirT1 mRNA [2]: greatest increase; also recorded: significantly increased SirT1 mRNA | Abundance Ratio (DDL218/Veh) ([3]; Cep170, hippocampal tissue): 1.36 | Abundance Ratio (DDL218/Veh) ([3]; Fxyd7, hippocampal tissue): 1.317 | Abundance Ratio (DDL218/Veh) ([3]; Luc7l2, hippocampal tissue): 0.793 | Abundance Ratio (DDL218/Veh) ([3]; Nubpl, hippocampal tissue): 1.374 | Abundance Ratio (DDL218/Veh) ([3]; Ptprn2, hippocampal tissue): 1.411 | Abundance Ratio (DDL218/Veh) ([3]; Rpl31, hippocampal tissue): 1.22 | Abundance Ratio (DDL218/Veh) ([3]; Rps20, hippocampal tissue): 1.223 | Abundance Ratio (DDL218/Veh) ([3]; Scfd2, hippocampal tissue): 1.338 | Abundance Ratio (DDL218/Veh) ([3]; Shisa6, hippocampal tissue): 1.219 | Abundance Ratio (DDL218/Veh) ([3]; Tbc1d17, hippocampal tissue): 1.25
